Experimental data published in ChEMBL document CHEMBL1201862, “PubChem BioAssay data set” (2004).
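Dose response: 5 concentrations. Exposure: 48 h. Format: 96-well plates. Endpoint: linear interpolation; highest concentration if not reached. At the GI50, growth is halved.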 Activity calls are given as the source filed them. Rule as the data show it: active = GI50 up to about 1.1 µM and inactive = higher.

How the values were obtained:
Test in all cases: growth of human tumour cells (NCI), 48 h
SF-295 = tested on: SF-295
Malme-3M = tested on: Malme-3M
ACHN = tested on: ACHN
SN12C = tested on: SN12C
HCC 2998 = tested on: HCC 2998
SK-MEL-2 = tested on: SK-MEL-2
KM12 = tested on: KM12
NCI-H460 = tested on: NCI-H460
UACC-257 = tested on: UACC-257
UACC-62 = tested on: UACC-62
SF-268 = tested on: SF-268
SK-OV-3 = tested on: SK-OV-3
DMS-273 = tested on: DMS-273
U-251 = tested on: U-251
HCT-15 = tested on: HCT-15
SK-MEL-5 = tested on: SK-MEL-5
M14 = tested on: M14
NCI-H522 = tested on: NCI-H522
BT-549 = tested on: BT-549
DU-145 = tested on: DU-145

Compound	GI50 (SF-295)	GI50 (Malme-3M)	GI50 (ACHN)	GI50 (SN12C)	GI50 (HCC 2998)	GI50 (SK-MEL-2)	GI50 (KM12)	GI50 (NCI-H460)	GI50 (UACC-257)	GI50 (UACC-62)	GI50 (SF-268)	GI50 (SK-OV-3)	GI50 (DMS-273)	GI50 (U-251)	GI50 (HCT-15) [µM]	GI50 (SK-MEL-5)	GI50 (M14)	GI50 (NCI-H522)	GI50 (BT-549)	GI50 (DU-145)
COc1ccc2c(c1)O[C@@H]1c3ccc(OC)cc3OC[C@H]21	26.9 µM (inactive)	39.2 µM (inactive)	52.4 µM (inactive)	55.2 µM (inactive)	35.2 µM (inactive)	23 µM (inactive)	28.4 µM (inactive)	26.2 µM (inactive)	> 10 µM (inactive)	37.8 µM (inactive)	38.2 µM (inactive)	57 µM (inactive)	14.1 µM (inactive)	24.2 µM (inactive)	25.8	17.4 µM (inactive)	26.9 µM (inactive)	15.3 µM (inactive)	–	–
CCn1c(C)nc([N+](=O)[O-])c1Sc1ncc[nH]1	> 100 µM (inactive)	20.1 µM (inactive)	48.1 µM (inactive)	37 µM (inactive)	> 100 µM (inactive)	25.4 µM (inactive)	> 100 µM (inactive)	66.2 µM (inactive)	39.4 µM (inactive)	28.5 µM (inactive)	69.7 µM (inactive)	> 100 µM (inactive)	57.1 µM (inactive)	44 µM (inactive)	–	48.4 µM (inactive)	32.4 µM (inactive)	15.6 µM (inactive)	–	–
C[N+](C)(C)CC(=O)NC(=O)N/N=C\C(CC#N)CN(Cc1ccccc1)Cc1ccccc1 (stereo unspecified)	38 µM (inactive)	58.2 µM (inactive)	> 100 µM (inactive)	> 100 µM (inactive)	66.4 µM (inactive)	> 100 µM (inactive)	> 100 µM (inactive)	> 100 µM (inactive)	> 100 µM (inactive)	> 100 µM (inactive)	> 100 µM (inactive)	> 100 µM (inactive)	> 100 µM (inactive)	> 100 µM (inactive)	> 100	> 100 µM (inactive)	> 100 µM (inactive)	> 100 µM (inactive)	–	–
COC(=O)c1cc2c(=O)n(C)c3ccccc3n2c1C(=O)OC	34.3 µM (inactive)	> 100 µM (inactive)	83.2 µM (inactive)	42.5 µM (inactive)	33.5 µM (inactive)	> 100 µM (inactive)	63.1 µM (inactive)	> 100 µM (inactive)	> 100 µM (inactive)	> 100 µM (inactive)	30.3 µM (inactive)	28.1 µM (inactive)	51.6 µM (inactive)	24.1 µM (inactive)	80.2	> 100 µM (inactive)	47.9 µM (inactive)	20 µM (inactive)	–	–
O=C(CC1(O)C(=O)Nc2c(Cl)ccc(Cl)c21)c1ccco1 (stereo unspecified)	20.1 µM (inactive)	20 µM (inactive)	20.5 µM (inactive)	17.3 µM (inactive)	33.5 µM (inactive)	26.1 µM (inactive)	27 µM (inactive)	20.4 µM (inactive)	18 µM (inactive)	13.5 µM (inactive)	25.4 µM (inactive)	31.5 µM (inactive)	34.6 µM (inactive)	22.7 µM (inactive)	25.2	17.8 µM (inactive)	14.5 µM (inactive)	44.3 µM (inactive)	36.5 µM (inactive)	40.3 µM (inactive)
COc1ccc2[nH]cc(CCNC(=O)[C@](O)(Cc3cn(C)c4ccccc34)[C@@]3(O)OCC(O)C3O)c2c1 (stereo partly specified)	> 100 µM (inactive)	> 100 µM (inactive)	> 100 µM (inactive)	> 100 µM (inactive)	> 100 µM (inactive)	> 100 µM (inactive)	> 100 µM (inactive)	77.4 µM (inactive)	> 100 µM (inactive)	58.9 µM (inactive)	82.6 µM (inactive)	> 100 µM (inactive)	> 100 µM (inactive)	> 100 µM (inactive)	> 100	> 100 µM (inactive)	> 100 µM (inactive)	> 100 µM (inactive)	–	–
COC(=O)c1ccc(C=C(C#N)C#N)cc1	32.4 µM (inactive)	20.7 µM (inactive)	25 µM (inactive)	19.3 µM (inactive)	15.6 µM (inactive)	18.4 µM (inactive)	31.6 µM (inactive)	83.6 µM (inactive)	–	20.8 µM (inactive)	23 µM (inactive)	> 100 µM (inactive)	17.4 µM (inactive)	24.4 µM (inactive)	35	17.9 µM (inactive)	16.5 µM (inactive)	13.7 µM (inactive)	–	–
Nc1ccccc1C(=O)/C=C/c1c(O)ccc2ccccc12	> 100 µM (inactive)	> 100 µM (inactive)	> 100 µM (inactive)	32.7 µM (inactive)	> 100 µM (inactive)	> 100 µM (inactive)	> 100 µM (inactive)	> 100 µM (inactive)	> 100 µM (inactive)	> 100 µM (inactive)	> 100 µM (inactive)	> 100 µM (inactive)	> 100 µM (inactive)	> 100 µM (inactive)	> 100	> 100 µM (inactive)	> 100 µM (inactive)	> 100 µM (inactive)	–	–
O=C1CC[C@H](NC(=O)Cc2ccccc2)C(=O)N1 [ANTINEOPLASTON A10]	> 1250 µM (inactive)	> 1250 µM (inactive)	> 1250 µM (inactive)	> 1250 µM (inactive)	> 1250 µM (inactive)	> 1250 µM (inactive)	> 1250 µM (inactive)	> 1250 µM (inactive)	> 1250 µM (inactive)	> 1250 µM (inactive)	> 1250 µM (inactive)	> 1250 µM (inactive)	> 1250 µM (inactive)	> 1250 µM (inactive)	> 1250	–	> 1250 µM (inactive)	> 1250 µM (inactive)	–	–
CC[C@H]1CC(=O)c2c(cc3c(c2O)C(=O)c2ccccc2C3=O)[C@@]1(C#N)C(=O)OC(C)(C)C	4.47 µM (inactive)	4.92 µM (inactive)	3.31 µM (inactive)	3.97 µM (inactive)	5.47 µM (inactive)	2.17 µM (inactive)	2.62 µM (inactive)	2.7 µM (inactive)	2.07 µM (inactive)	4.35 µM (inactive)	5.36 µM (inactive)	3.65 µM (inactive)	2.42 µM (inactive)	3.48 µM (inactive)	2.07	1.9 µM (inactive)	3.65 µM (inactive)	2.29 µM (inactive)	–	–
O=C1[C@@H]2C3c4ccccc4C([C@@H]2C(=O)N1c1ccccc1)S3(=O)=O	81.7 µM (inactive)	> 100 µM (inactive)	> 100 µM (inactive)	61.5 µM (inactive)	> 100 µM (inactive)	> 100 µM (inactive)	> 100 µM (inactive)	31.1 µM (inactive)	> 100 µM (inactive)	> 100 µM (inactive)	38.9 µM (inactive)	> 100 µM (inactive)	> 100 µM (inactive)	47.2 µM (inactive)	> 100	> 100 µM (inactive)	> 100 µM (inactive)	74.3 µM (inactive)	–	–
Cc1ccc(/N=N/C(C(=O)c2ccccc2)C(=O)c2ccccc2)cc1	24.7 µM (inactive)	29.9 µM (inactive)	26.6 µM (inactive)	18.7 µM (inactive)	38.3 µM (inactive)	19.5 µM (inactive)	36.1 µM (inactive)	–	29.4 µM (inactive)	16.4 µM (inactive)	29.8 µM (inactive)	47.1 µM (inactive)	19.2 µM (inactive)	18 µM (inactive)	14.2	17.7 µM (inactive)	15.7 µM (inactive)	17.3 µM (inactive)	–	–
CCOC(=O)NC/C=C/COC1CCCCO1 (stereo unspecified)	–	> 100 µM (inactive)	> 100 µM (inactive)	> 100 µM (inactive)	> 100 µM (inactive)	> 100 µM (inactive)	> 100 µM (inactive)	> 100 µM (inactive)	> 100 µM (inactive)	> 100 µM (inactive)	> 100 µM (inactive)	> 100 µM (inactive)	> 100 µM (inactive)	> 100 µM (inactive)	> 100	> 100 µM (inactive)	> 100 µM (inactive)	> 100 µM (inactive)	–	–
C=CCC12CCC(=O)[C@@]1(C)CC=C(O)C2=O (stereo partly specified)	> 100 µM (inactive)	> 100 µM (inactive)	> 100 µM (inactive)	> 100 µM (inactive)	> 100 µM (inactive)	–	> 100 µM (inactive)	> 100 µM (inactive)	> 100 µM (inactive)	> 100 µM (inactive)	> 100 µM (inactive)	> 100 µM (inactive)	> 100 µM (inactive)	> 100 µM (inactive)	> 100	> 100 µM (inactive)	> 100 µM (inactive)	> 100 µM (inactive)	–	–
COc1cc2c(c(O)c1O)-c1ccc(OC)c(=O)cc1C(NC(C)=O)CC2 (stereo unspecified)	12.5 µM (inactive)	16.5 µM (inactive)	74.6 µM (inactive)	12.8 µM (inactive)	8.05 µM (inactive)	3.13 µM (inactive)	3.13 µM (inactive)	25.2 µM (inactive)	30.1 µM (inactive)	6.98 µM (inactive)	5.75 µM (inactive)	15 µM (inactive)	5.07 µM (inactive)	4.88 µM (inactive)	> 95.1	3.58 µM (inactive)	7.41 µM (inactive)	2.42 µM (inactive)	–	–
